Assay results as given in patent US12371428B2 (Exelixis, Inc., priority 2019, dated 2025).

Legend:
[1] = molecular target: Mer (phospho-Mer, MERTK-transfected 293A cells) (Homo sapiens (Human), UniProt Q12866); experiment: Mer autophosphorylation ELISA in transient transfected 293A cells (Example H); assay type: cell-based; conditions: cellular activity; Mer autophosphorylation ELISA in transient transfected 293A cells
In short: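 IC50 from 4-parameter logistic fit of phospho-Mer levels, quantified by ELISA against a phospho-Mer standard in lysates of MERTK-transfected 293A cells. Cells exposed 1 h to 8-point serial dilutions, serum-free, 0.3% DMSO; controls: DMSO (100%) and reference inhibitor (0%).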

[2] = molecular target: Human KDR (residues 790-1356) (Homo sapiens (Human), UniProt P35968); experiment: Human KDR kinase assay, HTRF KinEase (Example B-2); assay type: biochemical; conditions: protocol of Example B-2 (other compounds)
In short: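 Ten compound concentrations (3% DMSO final) were pre-plated, then KDR (790-1356) with biotinylated peptide in Mg/Mn/DTT buffer was added; ATP at Km (4.0 μM) started a 40 min room-temperature reaction. Detection used Eu-TK antibody and SA-XL665 in EDTA buffer; activity normalized to DMSO and reference inhibitor, IC50 by logistic fit.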

[3] = molecular target: Human MER (residues 528-999) (Homo sapiens (Human), UniProt Q12866); experiment: Human Mer kinase assay, HTRF KinEase (Example C-2); assay type: biochemical; conditions: protocol of Example C-2 (other compounds)
In short: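 IC50 values from 10 concentrations via 4-parameter logistic fit of […], with DMSO as 100% and 1 μM reference compound as 0% activity. Reaction: MER kinase domain 528-999, 1 ng/well, 40 μM ATP (Km), biotin peptide, 5 mM MgCl2, 1 mM DTT, 3% DMSO, room temperature 60 min; HTRF streptavidin-XL665/Eu-antibody detection.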

Human KDR (residues 790-1356), sequence (P35968 790-1356): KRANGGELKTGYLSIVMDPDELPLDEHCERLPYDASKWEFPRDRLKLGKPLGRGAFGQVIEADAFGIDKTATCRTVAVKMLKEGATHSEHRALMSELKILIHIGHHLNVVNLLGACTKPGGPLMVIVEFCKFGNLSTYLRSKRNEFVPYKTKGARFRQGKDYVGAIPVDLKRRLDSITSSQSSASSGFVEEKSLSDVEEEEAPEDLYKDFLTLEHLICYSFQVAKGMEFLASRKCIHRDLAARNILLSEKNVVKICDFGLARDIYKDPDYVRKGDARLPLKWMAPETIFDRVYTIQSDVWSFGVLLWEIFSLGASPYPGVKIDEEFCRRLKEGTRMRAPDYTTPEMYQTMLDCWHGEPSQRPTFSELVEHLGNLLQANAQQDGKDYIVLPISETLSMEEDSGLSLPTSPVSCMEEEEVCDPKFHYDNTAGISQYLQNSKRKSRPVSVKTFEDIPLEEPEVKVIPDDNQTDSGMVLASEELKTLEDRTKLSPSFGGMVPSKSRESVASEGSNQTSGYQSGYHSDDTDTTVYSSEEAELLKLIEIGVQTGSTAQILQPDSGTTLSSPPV
Mer (phospho-Mer, MERTK-transfected 293A cells), sequence (Q12866 21-999): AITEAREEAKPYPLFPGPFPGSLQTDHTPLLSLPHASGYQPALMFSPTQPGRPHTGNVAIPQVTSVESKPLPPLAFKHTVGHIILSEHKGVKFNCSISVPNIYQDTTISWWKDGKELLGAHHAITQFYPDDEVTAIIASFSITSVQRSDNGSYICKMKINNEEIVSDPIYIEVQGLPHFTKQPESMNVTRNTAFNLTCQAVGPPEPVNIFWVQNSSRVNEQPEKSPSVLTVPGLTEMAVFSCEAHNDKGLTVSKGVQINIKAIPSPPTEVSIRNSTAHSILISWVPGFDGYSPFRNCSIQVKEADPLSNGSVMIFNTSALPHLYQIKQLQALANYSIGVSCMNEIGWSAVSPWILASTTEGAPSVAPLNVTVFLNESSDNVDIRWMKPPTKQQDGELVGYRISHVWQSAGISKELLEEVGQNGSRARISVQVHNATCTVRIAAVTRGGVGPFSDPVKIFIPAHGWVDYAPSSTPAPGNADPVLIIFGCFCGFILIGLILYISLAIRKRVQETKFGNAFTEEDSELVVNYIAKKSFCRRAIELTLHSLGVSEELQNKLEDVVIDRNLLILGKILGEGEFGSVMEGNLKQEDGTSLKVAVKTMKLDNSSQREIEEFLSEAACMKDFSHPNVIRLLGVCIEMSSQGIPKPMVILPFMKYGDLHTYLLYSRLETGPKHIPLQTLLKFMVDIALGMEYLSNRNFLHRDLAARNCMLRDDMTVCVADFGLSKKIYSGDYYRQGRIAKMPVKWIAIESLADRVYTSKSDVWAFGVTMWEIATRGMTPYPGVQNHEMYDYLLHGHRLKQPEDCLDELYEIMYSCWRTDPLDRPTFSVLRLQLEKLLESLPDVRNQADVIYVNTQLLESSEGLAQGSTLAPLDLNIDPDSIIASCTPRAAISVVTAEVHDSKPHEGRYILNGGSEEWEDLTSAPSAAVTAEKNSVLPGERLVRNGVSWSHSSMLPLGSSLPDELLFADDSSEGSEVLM
Human MER (residues 528-999), sequence (Q12866 528-999): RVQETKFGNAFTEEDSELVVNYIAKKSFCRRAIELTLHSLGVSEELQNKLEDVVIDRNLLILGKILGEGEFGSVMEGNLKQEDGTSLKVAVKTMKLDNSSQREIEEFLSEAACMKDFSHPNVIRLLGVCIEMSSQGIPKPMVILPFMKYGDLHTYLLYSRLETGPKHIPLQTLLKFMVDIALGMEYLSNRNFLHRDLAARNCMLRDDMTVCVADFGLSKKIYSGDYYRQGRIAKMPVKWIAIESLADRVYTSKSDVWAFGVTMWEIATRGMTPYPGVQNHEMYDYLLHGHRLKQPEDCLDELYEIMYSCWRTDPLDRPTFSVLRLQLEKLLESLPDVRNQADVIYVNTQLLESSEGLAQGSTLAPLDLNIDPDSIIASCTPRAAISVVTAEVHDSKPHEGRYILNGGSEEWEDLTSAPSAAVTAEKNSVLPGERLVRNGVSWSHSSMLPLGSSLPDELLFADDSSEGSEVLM

| IC50 [1] | IC50 [2] | IC50 [3] | Compound |
| --- | --- | --- | --- |
| < 100 nM | 100 to 300 nM | < 100 nM | COc1cc2nccc(Oc3ccc(NC(=O)c4cnc(C)c(-c5ccc(F)cc5)c4O)cc3F)c2nc1OC(C)C [Compound 415, N-[3-fluoro-4-[(7-methoxy-6-propan-2-yloxy-1,5-naphthyridin-4-yl)oxy]phenyl]-5-(4-fluorophenyl)-4-hydroxy-6-methylpyridine-3-carboxamide] |
| < 100 nM | 100 to 300 nM | < 100 nM | COc1cc2nccc(Oc3ccc(NC(=O)c4cn(C5(C(F)(F)F)CC5)cc(-c5ccc(F)cc5)c4=O)cc3F)c2nc1OC [Compound 59, N-[4-[(6,7-Dimethoxy-1,5-naphthyridin-4-yl)oxy]-3-fluorophenyl]-5-(4-fluorophenyl)-4-oxo-1-[1-(trifluoromethyl)cyclopropyl]pyridine-3-carboxamide] |
| < 100 nM | > 300 nM | < 100 nM | COc1cc2nccc(Oc3ccc(NC(=O)c4cn(C5CC5)c(C)c(-c5ccc(F)cc5)c4=O)cc3F)c2nc1OC [Compound 433, 1-cyclopropyl-N-[4-[(6,7-dimethoxy-1,5-naphthyridin-4-yl)oxy]-3-fluorophenyl]-5-(4-fluorophenyl)-6-methyl-4-oxopyridine-3-carboxamide] |
| < 100 nM | < 100 nM | < 100 nM | COc1cc2nccc(Oc3ccc(NC(=O)c4n[nH]c(C)c(-c5ccc(F)cc5)c4=O)cc3F)c2nc1OC [Compound 88, N-[4-[(6,7-Dimethoxy-1,5-naphthyridin-4-yl)oxy]-3-fluorophenyl]-5-(4-fluorophenyl)-6-methyl-4-oxo-1H-pyridazine-3-carboxamide] |
| < 100 nM | > 300 nM | < 100 nM | COc1cc2nccc(Oc3ccc(NC(=O)c4cc(C(C)=O)c(C)n(-c5ccc(F)cc5)c4=O)cc3F)c2nc1OC [Compound 86, 5-Acetyl-N-[4-[(6,7-dimethoxy-1,5-naphthyridin-4-yl)oxy]-3-fluorophenyl]-1-(4-fluorophenyl)-6-methyl-2-oxopyridine-3-carboxamide] |
| < 100 nM | > 300 nM | < 100 nM | COc1cc2nccc(Oc3ccc(NC(=O)c4cn(C5CC5)c(C)c(-c5ccc(F)cc5)c4=O)cc3)c2nc1OC [Compound 434, 1-cyclopropyl-N-[4-[(6,7-dimethoxy-1,5-naphthyridin-4-yl)oxy]phenyl]-5-(4-fluorophenyl)-6-methyl-4-oxopyridine-3-carboxamide] |
| < 100 nM | 100 to 300 nM | < 100 nM | Cc1cc2nccc(Oc3ccc(NC(=O)c4cnc(C)c(-c5ccc(F)cc5)c4O)cc3F)c2nc1F [Compound 426, N-[3-fluoro-4-[(6-fluoro-7-methyl-1,5-naphthyridin-4-yl)oxy]phenyl]-5-(4-fluorophenyl)-4-hydroxy-6-methylpyridine-3-carboxamide] |
| < 100 nM | > 300 nM | < 100 nM | COc1cc2nccc(Oc3ccc(NC(=O)c4cn(-c5cn[nH]c5)cc(-c5ccc(F)cc5)c4=O)cc3F)c2nc1OC [Compound 62, N-[4-[(6,7-Dimethoxy-1,5-naphthyridin-4-yl)oxy]-3-fluorophenyl]-5-(4-fluorophenyl)-4-oxo-1-(1H-pyrazol-4-yl)pyridine-3-carboxamide] |
| < 100 nM | > 300 nM | < 100 nM | CCc1cnc2c(Oc3ccc(NC(=O)c4cnc(C)c(-c5ccc(F)cc5C)c4O)cc3F)ccnc2c1 [Compound 419, N-[4-[(7-ethyl-1,5-naphthyridin-4-yl)oxy]-3-fluorophenyl]-5-(4-fluoro-2-methylphenyl)-4-hydroxy-6-methylpyridine-3-carboxamide] |
| < 100 nM | < 100 nM | < 100 nM | COc1cc2nccc(Oc3ccc(NC(=O)c4c(C)nc(OC)c(-c5ccc(F)cc5)c4O)cc3F)c2nc1OC [Compound 442, N-[4-[(6,7-dimethoxy-1,5-naphthyridin-4-yl)oxy]-3-fluorophenyl]-5-(4-fluorophenyl)-4-hydroxy-6-methoxy-2-methylpyridine-3-carboxamide] |
| < 100 nM | < 100 nM | < 100 nM | COc1ccc2nccc(Oc3ccc(NC(=O)c4c(C)nc(C)c(-c5ccc(F)cc5)c4O)cc3F)c2n1 [Compound 67, N-[3-Fluoro-4-[(6-methoxy-1,5-naphthyridin-4-yl)oxy]phenyl]-5-(4-fluorophenyl)-4-hydroxy-2,6-dimethylpyridine-3-carboxamide] |
| < 100 nM | < 100 nM | < 100 nM | COc1cc2nccc(Oc3ccc(NC(=O)c4cn(CC(F)(F)F)c(C)c(-c5ccc(F)cc5)c4=O)cc3F)c2nc1OC [Compound 74, N-[4-[(6,7-Dimethoxy-1,5-naphthyridin-4-yl)oxy]-3-fluorophenyl]-5-(4-fluorophenyl)-6-methyl-4-oxo-1-(2,2,2-trifluoroethyl)pyridine-3-carboxamide] |
| < 100 nM | > 300 nM | < 100 nM | COc1cc2nccc(Oc3ccc(NC(=O)c4cn(-c5cc[nH]n5)cc(-c5ccc(F)cc5)c4=O)cc3F)c2nc1OC [Compound 61, N-[4-[(6,7-Dimethoxy-1,5-naphthyridin-4-yl)oxy]-3-fluorophenyl]-5-(4-fluorophenyl)-4-oxo-1-(1H-pyrazol-3-yl)pyridine-3-carboxamide] |
| < 100 nM | > 300 nM | < 100 nM | COc1cc2nccc(Oc3ncc(NC(=O)c4cn(-c5ccn(C)n5)cc(-c5ccc(F)cc5)c4=O)cc3F)c2cc1OC [Compound 402, N-[6-(6,7-dimethoxyquinolin-4-yl)oxy-5-fluoropyridin-3-yl]-5-(4-fluorophenyl)-1-(1-methylpyrazol-3-yl)-4-oxopyridine-3-carboxamide] |
| < 100 nM | < 100 nM | < 100 nM | C=Cc1cc2nccc(Oc3ccc(NC(=O)c4cnc(C)c(-c5ccc(F)cc5)c4O)cc3F)c2nc1OC [Compound 422, N-[4-[(7-ethenyl-6-methoxy-1,5-naphthyridin-4-yl)oxy]-3-fluorophenyl]-5-(4-fluorophenyl)-4-hydroxy-6-methylpyridine-3-carboxamide] |
| < 100 nM | > 300 nM | < 100 nM | COc1ccc2nccc(Oc3ccc(NC(=O)c4cn(C5CC5)c(C)c(-c5ccc(F)cc5C)c4=O)cc3F)c2n1 [Compound 441, 1-cyclopropyl-N-[3-fluoro-4-[(6-methoxy-1,5-naphthyridin-4-yl)oxy]phenyl]-5-(4-fluoro-2-methylphenyl)-6-methyl-4-oxopyridine-3-carboxamide] |
| < 100 nM | 100 to 300 nM | < 100 nM | COc1cc2nccc(Oc3ccc(NC(=O)c4nc(C)c(C)n(-c5ccc(F)cc5)c4=O)cc3F)c2nc1OC [Compound 95, N-[4-[(6,7-Dimethoxy-1,5-naphthyridin-4-yl)oxy]-3-fluorophenyl]-4-(4-fluorophenyl)-5,6-dimethyl-3-oxopyrazine-2-carboxamide] |
| < 100 nM | > 300 nM | < 100 nM | COc1cc2nccc(Oc3ccc(NC(=O)c4cnc(C)c(-c5ccc(F)cc5C)c4O)cc3)c2nc1OC(C)C [Compound 414, 5-(4-fluoro-2-methylphenyl)-4-hydroxy-N-[4-[(7-methoxy-6-propan-2-yloxy-1,5-naphthyridin-4-yl)oxy]phenyl]-6-methylpyridine-3-carboxamide] |
